From patent US9610363B2, “Methods for inhibiting starvation of a cell” (PRESIDENT AND FELLOWS OF HARVARD COLLEGE, priority 2009, dated 2017)
“Also recorded” adds a separate entry of the source.

What was measured:
cones [1] = assay: AAV2/5 gluconeogenesis vector tested in vivo in the rd1 mutant mouse, cone survival and morphology
[2] = Behavioral assays (open field and step tests) in rd1 mutant mice; format: in vivo, mouse; conditions: infected rd1 animals
From the text: FIG. 23 is a graph depicting the open field and step tests performed on the rd1 mutant mice in which the AAV vector was introduced.
This observation also confirms that outer segment shortening was due to insufficient glucose.

HEK 293 cells = assay: Expression of Fbp-1, Pck-1 and Pcx from the AAV vector (PCR, Western blot in HEK 293 cells); format: cell-based
Method: FIGS. 22A and B depict the mRNA expression and protein expression of gluconeogenesis genes. […] Gapdh is used as a loading control and water is used as a negative control.
Two ways were used to supply cells with more glucose. One was to increase intracellular glucose levels by providing cones with the means to synthesize their own glucose. Glucose synthesis, called gluconeogenesis, is carried out primarily in the liver, and to a limited extent in kidney and muscle. One might consider that the enzymes required for glucose synthesis could be those that break down glucose, during the process of glycolysis. However, some of the steps in glycolysis are energy producing and thus to reverse them requires a different process. Three enzymes must be supplied to allow the glucose to be synthesized, utilizing pyruvate or lactate as a starting point, and utilizing ATP and GTP to go uphill energetically in the synthesis. The first energy requiring step is catalyzed by Pcx (Pcx: Pyruvate Carboxylase) and utilizes ATP. A subsequent energy requiring step is catalyzed by Pck1: Phosphoenolpyruvate carboxykinase) and requires GTP. […] The endogenous expression of Fbp1, PCk1, and Pcx and the expression Fbp1, PCk1, and Pcx in the AAV vector (“construct”) was analyzed by PCR analysis (FIG. 22A) and Western blot analysis (FIG. 22B).

p*-mTOR = assay: Retinal explant culture, p*-mTOR staining; format: cell-based, mice; conditions: wild type retinal explants, 4 hours culture, media with or without glucose
Method: Retinal explant cultures: The retina was dissected free from other ocular tissues in DMEM, and then incubated in conditions according to the chart in FIG. 10a. Regular DMEM was at 4.5 g/L glucose, low glucose was at 1 g/L, leucine was added at 200 μM and FCS at 10%. Incubation was performed for 4 h and the retinae were fixed and processed for antibody staining as described below.
(§1) Whole mount and section antibody staining were performed as previously (Punzo, C. & Cepko, C. L. (2008) Dev Dyn 237, 1034-42) described with the following modifications. Antibody staining for LAMP-2: Triton was replaced with 0.01% Saponin. Antibody staining for p*-mTOR and p*-S6: PBS was replaced by TBS in every step of the procedure. […] Time points analyzed for the rod and cone death kinetics (P: postnatal day; PW: postnatal week): PDE-β−/−: P10-P20 daily, PW3-10 weekly, PW 12, PW15, PW18, PW45; PDE-γ-KO: P10-P20 daily, PW3-PW10 weekly, PW15, PW25, PW45; Rho-KO: PW4-PW8 weekly, PW10, PW11, PW17, PW20, PW25, PW27, PW31, PW34, PW37, PW45, PW55, PW80; P23H: PW5, PW10, PW16, PW25, PW30, PW35, PW40, PW65, PW70, PW75, PW80, PW85.

cones [3] = assay: Quantification of cone survival in PDE-β−/− mice (cone-lacZ staining of retinal flat mounts); format: in vivo; conditions: for cone survival after 4 weeks of treatment: PW7, insulin daily i.p. from P21, streptozotocin single i.p. injection at P21, vs uninjected control; for cone survival after 7 weeks of treatment: PW10, treatment from PW3, vs untreated
Method: (§2) Rapamycin, Streptozotocin and Insulin treatments were performed as follows. Rapamycin was diluted to 10 mg/ml in ethanol. The stock was diluted to 0.015 mg/ml in drinking water over a period of 2 weeks. A single intraperitoneal injection of 150 μl (12 mg/ml in 0.1M citric acid, ph4.5) of Streptozotocin was injected at postnatal day (P) 21. Insulin was injected intraperitoneally daily starting at P21. The concentration was increased weekly such that the first week, 10 U/kg body weight, the second 15 U/kg, the third 20 U/kg and fourth 30 U/kg body weight, were injected. In the treatment that lasted 7 weeks 30 U/kg body weight were injected for the remaining 3 weeks. Blood glucose levels were measured by collecting a drop of blood from the tail directly onto a test strip from TrueTrack smart system (CVS pharmacy). Eye bleeds were avoided due to the fact that cell survival in the retina was being assayed.
Quantification of cone survival was performed as follows. The colors of the bright light image were inverted and processed with Imaris software (Bitplane Inc) to calculate the percentage of blue surface area versus the total retinal surface area (see also FIG. 17). A minimum of 8 retinae per treatment, and for the control, were analyzed. P-values were calculated by the student's t-test.

HIF-1α = assay: Immunofluorescent staining for HIF-1α in cones of PDE-β−/− mice; format: in vivo; conditions: PDE-β−/− mice treated for 4 weeks with insulin
Method: as §2, with “Eye bleeds were avoided due to the fact that cell survival in the retina was being assayed.” left out
as §1, with “modifications.” for “modifications. Antibody staining for LAMP-2: Triton was replaced with 0.01% Saponin. Antibody staining for p*-mTOR and p*-S6: PBS was replaced by TBS in every step of the procedure.”

photoreceptor = conditions: cited from earlier work

CMV promotor-Pcx-IRES-Fbp1-IRES-Pck1: AAV 2/5 virus carrying Pcx, Fbp1 and Pck1 on one transcript under the CMV promoter with IRES elements
morphology of the cone outer segments (cones [1]): remarkably similar to that of normal cones
cone survival (cones [1]; relative to controls): additional cone survival relative to controls
vision in two behavioral assays [2]: functional vision
mRNA expression of Fbp-1, Pck-1 and Pcx (HEK 293 cells; PCR analysis, Gapdh loading control): expresses these genes
protein expression of Fbp-1, Pck-1 and Pcx (HEK 293 cells; Western blot, transfected HEK 293 cells vs retina and HEK 293 control samples): upregulated

O=C[C@H](O)[C@@H](O)[C@H](O)[C@H](O)CO [glucose]
dorsal p*-mTOR in cones (p*-mTOR): abolished in the absence of glucose; also recorded: only detected when glucose was present

CN(N=O)C(=O)N[C@H]1C(O)O[C@H](CO)[C@@H](O)[C@@H]1O (mixture of isomers) [streptozotocin]
cone survival after 4 weeks of treatment (cones [3]): decrease in cone survival
cone survival after 7 weeks of treatment (cones [3]): no significant difference in cone survival

insulin
cone survival after 4 weeks of treatment (cones [3]): improved cone survival; also recorded: prolonged cone survival
cone survival after 7 weeks of treatment (cones [3]): did not show any significant improvement of cone survival; also recorded: no significant difference in cone survival
upregulation of HIF-1α in cones (HIF-1α): did not show the upregulation of HIF-1α; also recorded: prevented the upregulation of HIF-1α

B1: proinsulin (protein, UniProt P01326 25-110, looked up)
pro-form: FVKQHLCGSHLVEALYLVCGERGFFYTPMSRREVEDPQVAQLELGGGPGAGDLQTLALEVAQQKRGIVDQCCTSICSLYQLENYCN
modifications: pro-form
photoreceptor death (photoreceptor; constitutive expression, rd10 mouse model of RP): delays photoreceptor death, both of rods and cones
hyperglycemia (photoreceptor; mice treated with proinsulin): did not develop hyperglycemia
